Series [1] has as its system Plasmodium falciparum. Put plainly: Antimalarial activity against Plasmodium falciparum liver stage form infected in human primary hepatocytes assessed as reduction in viability at 19.3 uM incubated for 3 days followed by compound wash and measured on day 6 relative to control. The class given is functional.
In series [2] the test system is Hepatocyte. Put plainly: Cytotoxicity against human primary hepatocytes at 19.3 uM. The class given is cell-based.
Series [3] deals with Plasmodium falciparum. Put plainly: Antimalarial activity against Plasmodium falciparum liver stage form infected in human primary hepatocytes assessed as reduction in viability at 17.6 uM incubated for 3 days followed by compound wash and measured on day 6. The class given is functional, organism-based.
In series [4] the test system is Hepatocyte. Put plainly: Cytotoxicity against human primary hepatocytes at 17.6 uM. The class given is cell-based.
In series [5] the test system is Plasmodium falciparum. Put plainly: Antimalarial activity against Plasmodium falciparum liver stage form infected in human primary hepatocytes assessed as reduction in viability at 6.1 uM incubated for 3 days followed by compound wash and measured on day 6 relative to control. In kind it is functional.
The test system of series [6] is Hepatocyte. Put plainly: Cytotoxicity against human primary hepatocytes at 6.1 uM. The class given is cell-based.

Each structure is given as a SMILES string. Activity calls are given as the source filed them. No cut-off for these calls is given here. Non-standard residues stand in square brackets, D forms with d. Residues, ends and D or L forms follow the SMILES beside them. *: point of attachment. NMeI = CC[C@H](C)[C@H](NC)C(=O)O; dNMeF = CN[C@H](Cc1ccccc1)C(=O)O; X1 = C(=C/c1c[nH]c2ccccc12)/N*; NMeV = CN[C@H](C(=O)O)C(C)C; NMeA = CN[C@@H](C)C(=O)O A value given as a limit tells only on which side of the number the result lay.

In the case of `COc1cc(NC(C)CCCN)c2ncccc2c1` (stereo unspecified) [PRIMAQUINE], in series [1], the inhibition at 19.3 µM is above 90%. Besides, in series [2], the Activity entry is reported as “Non-Toxic”.

In the case of `C[C@H]1[C@@H](O)O[C@@H]2O[C@@]3(C)CC[C@H]4[C@H](C)CC[C@@H]1[C@@]24OO3` [ARTENIMOL], the inhibition result in series [3] is “inactive”. In addition, the Activity entry in series [4] is listed as “Non-Toxic”.

As to `CC[C@H](C)[C@@H](C(=O)N/C=C\c1c[nH]c2ccccc12)N(C)C(=O)[C@H]([C@@H](C)CC)N(C)C(=O)[C@H](C)N(C)C(=O)[C@H](C(C)C)N(C)C(=O)[C@@H](Cc1ccccc1)N(C)C(C)=O` (Ac-[dNMeF][NMeV][NMeA][NMeI][NMeI]-X1), the inhibition at 6.1 µM in series [5] is 90 to 92%. Further, the Activity result in series [6] is “Non-Toxic”.

As a reminder, the inhibition is the relative decrease from the control value, in per cent.

(Values after ChEMBL document CHEMBL4334474, “Friomaramide, a Highly Modified Linear Hexapeptide from an Antarctic Sponge, Inhibits Plasmodium falciparum Liver-Stage Development” (J Nat Prod, 2019).)
